In brackets after ≈: the same amount, converted by molar mass. Where two headings read alike, the source gives them in different places.
What was measured:
[1] = Thermodynamic solubility, shake flask method; type: physicochemical; settings: thermodynamic from solid, room temperature overnight, mean±SD, triplicate
Experimental: Thermodynamic solubility values were measured in two different buffers (pH 1.0; pH 7.4) by the shake flask method.[65] 1 mg of each compound was placed in 1 mL of appropriate buffer and shaken at room temperature overnight. The resulting suspension was centrifuged (10 min, 10000 g, 20 °C) and the supernatant analyzed by HPLC‐UV. Solubility values were interpolated from calibration curves prepared from concentrated DMSO stock solutions of each compound. Reported solubility values are the mean of three measurements±standard deviation.
It consisted of a LC‐10ADvp solvent delivery module, a 20 μL Rheodyne sample injector (Rheodyne LLC, Rohnert Park, CA, USA) and a SPD‐10Avp UV‐VIS detector. PeakSimple 2.83 software was employed for data acquisition and HPLC peak integration. […] Elution conditions were optimized for each compound at a flow rate of 1 mL min^−1 employing mobile phases consisting of water and acetonitrile at different percentages, while UV detection was set at λ = 254 nm.

[2] = target: T1, human MT1 receptors (Homo sapiens, UniProt P48039); assay: Radioligand binding, 2-[125I]iodomelatonin competition at MT1; settings: cloned human MT1 in CHO cells; from IC50 by Cheng-Prusoff; mean±SD of three determinations; read-out: MT1 K i
Experimental: (§3) After incubation, the % of radioligand binding inhibition was determined via a scintillation counting method. The radioligand binding experiments were performed in triplicate. IC50 values were determined by nonlinear regression analysis of the competition curves using Hill equation curve fitting. The pK i values were calculated from the IC50 values in accordance with the Cheng‐Prusoff equation.[28]

[3] = target: T2, human MT2 receptors (Homo sapiens, UniProt P49286); assay: Radioligand binding, 2-[125I]iodomelatonin competition at MT2; settings: cloned human MT2 in CHO cells; from IC50 by Cheng-Prusoff; mean±SD of three determinations; read-out: MT2 K i
T2 sequence (P49286 1-362): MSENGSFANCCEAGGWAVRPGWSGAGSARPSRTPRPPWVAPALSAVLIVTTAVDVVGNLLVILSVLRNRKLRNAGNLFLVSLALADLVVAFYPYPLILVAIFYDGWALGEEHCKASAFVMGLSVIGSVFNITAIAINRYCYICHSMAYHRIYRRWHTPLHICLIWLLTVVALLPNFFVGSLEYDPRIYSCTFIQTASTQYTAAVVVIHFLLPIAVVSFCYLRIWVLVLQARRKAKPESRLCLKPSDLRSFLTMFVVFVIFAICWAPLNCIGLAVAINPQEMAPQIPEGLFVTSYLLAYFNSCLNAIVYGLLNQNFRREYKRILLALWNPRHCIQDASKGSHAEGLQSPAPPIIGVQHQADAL
Experimental: as §3

[4] = Metabolic stability in human liver microsomes; type: in vitro ADME; settings: for CLi Human LM (intrinsic clearance) / half-life at 5 μM: human liver microsomes 1 mg protein/mL, 5 μM compound, mean±SD; for CLi Human LM (intrinsic clearance): 37 °C; for half-life at 5 μM: NADPH-regenerating system, pH 7.4, 37 °C, read-out: t 1/2 Human LM
Experimental: (§4) Each compound (final concentration: 5 μM) was incubated in the presence of rat or human liver microsomes (final concentration: 1 mg protein/mL) and of a NADPH‐regenerating system (final concentrations: 2 mM NADP^+, 10 mM glucose‐6‐phosphate, 0.4 U mL^−1 glucose‐6‐phosphate dehydrogenase, 5 mM MgCl2) in a 10 mM Phosphate Buffered Saline (PBS) solution, pH 7.4, at 37 °C. Compound was added after a 10 min pre‐incubation at 37 °C and. at stated time points, depending on compound kinetics, sample aliquots were withdrawn, metabolic reaction was quenched by acetonitrile addition (1 : 2), and after a centrifugation step (9000 g, 10 min, 4 °C) the supernatant was analyzed by HPLC‐UV‐VIS.
(§5) Apparent half‐lives (t1/2 in min) for the metabolic clearance of compounds were calculated from the pseudo first‐order rate constants (k) obtained by linear regression of the log chromatographic peak area versus time plots and are reported as means of three experiments±standard deviation. Intrinsic clearance (CLi) values of the compounds were calculated using the following equation: CLi (μL×min^−1×mg protein^−1)=k×V where V (μL×mg protein^−1)=incubation volume/mg protein added.
(§6) Pooled rat and human liver microsomes (20 mg/mL) were supplied by BD Biosciences (BD Biosciences, Woburn, MA, USA). Acetonitrile and methanol were HPLC grade and were supplied by Sigma‐Aldrich (Sigma‐Aldrich srl, Milan, Italy). Water was freshly bidistilled before use. All other reagents were purchased in the highest purity available.
(§7) PeakSimple 2.83 software was employed for data acquisition and HPLC peak integration. HPLC columns were a RP‐C18 Supelco Discovery (Supelco, Bellefonte, PA, USA), 5 μm, 150×4.6 mm i.d. for all compounds except 13, and a Phenomenex Gemini, 5 μm, 150×4.6 mm i.d. for compound 13 (Phenomenex). Elution conditions were optimized for each compound at a flow rate of 1 mL min^−1 employing mobile phases consisting of water and acetonitrile at different percentages, while UV detection was set at λ = 254 nm. For compound 13, the mobile phase consisted of a 10 mM ammonium acetate buffer pH 7.0 and methanol and the UV detection was set at λ = 281 nm.

[5] = Metabolic stability in rat liver microsomes; type: in vitro ADME; settings: for CLi Rat LM (intrinsic clearance) / half-life at 5 μM: rat liver microsomes 1 mg protein/mL, 5 μM compound, mean±SD; for CLi Rat LM (intrinsic clearance): 37 °C; for half-life at 5 μM: NADPH-regenerating system, pH 7.4, 37 °C, read-out: t 1/2 Rat LM
Experimental: as §4, §5, §6, §7

[6] = Experimental lipophilicity, shake-flask n-octanol/water; type: physicochemical; settings: n-octanol/50 mM MOPS buffer pH 7.4, 25±1 °C, mean±SD of three, read-out: Log D oct,7.4
Experimental: Chosen buffer was 50 mM zwitterionic MOPS (3‐morpholinopropanesulfonic acid), pH 7.4 to avoid ionic couple partitioning, with ionic strength adjusted to 0.15 M by KCl addition. Compounds, after partitioning overnight, and dilution of both phases with methanol, were dosed in the HPLC‐UV system, as detailed below. Reported log D oct,7.4 values are the mean of three measurements±standard deviation.
HPLC columns were a RP‐C18 Supelco Discovery (Supelco, Bellefonte, PA, USA), 5 μm, 150×4.6 mm i.d. for all compounds except 13, and a Phenomenex Gemini, 5 μm, 150×4.6 mm i.d. for compound 13 (Phenomenex). Elution conditions were optimized for each compound at a flow rate of 1 mL min^−1 employing mobile phases consisting of water and acetonitrile at different percentages, while UV detection was set at λ = 254 nm. For compound 13, the mobile phase consisted of a 10 mM ammonium acetate buffer pH 7.0 and methanol and the UV detection was set at λ = 281 nm.

[7] = target: T2, human MT2 receptors; assay: Agonist activity at MT2, cAMP assay; type: cell-based; settings: for EC50: cAMP assay, CHO cells expressing human MT2, mean±SD, triplicate; for functional profile (intrinsic activity): cAMP functional assay at MT2 (with MT1 cell impedance data of Table 3); for Emax: read-out: MT2 E max
Experimental: (§1) The in vitro pharmacology experiments were conducted at Cerep (Celle‐Lévescault, France) following radioligand binding and cellular functional assays developed elsewhere.[60, 61, 62]
(§2) To define the functional activity of the new compounds, cellular functional assays were performed on CHO cells stably expressing human MT1 or MT2 receptors. Agonist activity at MT1 receptors was evaluated using a cell impedance assay measured by cellular dielectric spectroscopy,[62] and at MT2 receptors with an cAMP assay, measured by a fluorometric method.[61] The EC50 values were determined by non‐linear regression analysis of the concentration‐response curves. Experiments were performed in triplicate.

[8] = In vivo pharmacokinetic study in rat plasma; parameters: species or system Sprague‐Dawley rats; settings: for Vd / bioavailability / AUC / Cmax / clearance / half-life: male; for Vd / bioavailability: plasma; for Vd / bioavailability / F (oral bioavailability): rat; for Vd: read-out: V ss; for bioavailability / F (oral bioavailability): PO 40 mg kg^−1 vs IV 5 mg kg^−1; for bioavailability: read-out: F (oral bioavailability); for AUC / Cmax / clearance / half-life: rat plasma
Experimental: To evaluate the in vivo behavior of the two melatonergic ligands 14 and 19, a preliminary pharmacokinetic (PK) study was carried out in male Sprague‐Dawley rats. The compounds were administered as intravenous bolus (IV) or by oral gavage (PO) at doses of 5 or 40 mg kg^−1, respectively. Quantitative analysis was carried out by UPLC/MS/MS and the plasma concentration profiles are shown in Figure 3, while the main PK parameters are listed in Table 4.
The in vivo pharmacokinetic experiments were conducted at NiKem Research (Baranzate – Milan – Italy). PK studies were performed using Sprague‐Dawley CD (albino) male rats (7–9 weeks‐old, weight 160–200 grams, Charles River Lab. Italia, Calco). Animals were housed under standard conditions and had free access to water and standard laboratory rodent diet. Care and husbandry of animals were in conformity with the institutional guidelines, in compliance with national and international laws and policies (EEC Council Directive 86/609, OJL 358 m, 1, Dec. 122, 1987; NIH Guide for the care and Use of Laboratory Animals, NIH Publication No. 86–23, 1985). The compounds were dissolved in water containing 3 % DMSO and 20 % Encapsin (and a stechiometric amount of HCl for 14) at a concentration of 2.5 mg mL^−1 for the IV (bolus) dose, or in water containing 5 % DMSO and 10 % encapsin (and a stechiometric amount of HCl for 14) at a concentration of 4 mg mL^−1 for PO (gavage) dose. Rats were randomly assigned to four treatment groups (n=3) and received a single IV bolus dose (5 mg kg^−1) or a single oral administration (40 mg kg^−1) through oral gavage of compound 14 or 19. Serial blood samples ([…]) were collected from caudal vein at 5, 30, 60, 120, 480 and 1440 min after IV injection, or at 15, 30, 60, 120, 480 and 1440 min after PO administration. Blood samples were collected in heparinized eppendorfs (Heparin Vister 5000 U.I./mL_Marvecs Pharma), gently mixed and placed on ice; then blood was centrifuged (3500×g, at 4 °C for 15 min), the plasma was collected and immediately frozen at −80 °C until submission to UPLC/MS/MS analysis. For the sample preparation, 100 μL of plasma spiked with 5 μL of internal standard (I.S.; 19 for compound 14 and 14 for compound 19; 2.5 μg mL^−1;) were added to a SW96 deep well plate (Waters) containing 300 μL of acetonitrile. The plate was shaken for 10 min and then centrifuged at 3000 rpm for 15 min. UPLC/MS/MS analyses were performed on an Acquity UPLC, coupled with a sample organizer and interfaced with a triple quadrupole Premiere XE (Waters, Milford, USA). LC runs (inj. vol. 5 μL) were carried out at 50 °C on Acquity BEH C18 columns (1.7 μm, 2.1×50 mm) at a flow rate of 0.45 mL min^−1. Mobile phases consisted of a phase A (water) and a phase B (0.1 % formic acid in acetonitrile). The column was conditioned with 2 % phase B for 0.2 min, then brought to 100 % phase B within 0.6 min and maintained at these conditions for 1.1 min. Analyses were carried out using a positive electrospray ionization [ESI(+)] interface in multiple reaction monitoring (MRM) mode. Capillary 3.5 Kv; extractor 3 V; source T 140 °C, desolvation T 450 °C. Transitions: for compound 14 Q1/Q3 315.2/86, CV 14, CE16+315.2/238 CV 14, CE19; for I.S. (compound 19): 301.1/86 CV 14 CE16; LLOQ: 1 ng ml^−1. Transitions: for compound 19 Q1/Q3: 301.1/86CV 14 CE16; for I.S. (compound 14) 315.2/238CV 14, CE19; LLOQ: 1 ng mL^−1. Pharmacokinetic analysis was performed by non‐compartmental analysis (NCA) using the WinNonlin 5.1 software (Pharsight, Mountain View, CA, USA. Absolute oral bioavailability (F) was calculated by linear trapezoidal rule using the relationship: F=[doseIV×AUCoral o‐∞/doseoral×AUCIV o‐∞]×100.

[9] = target: T1, human MT1 receptors; assay: Agonist activity at MT1, cell impedance assay (cellular dielectric spectroscopy); type: cell-based; settings: for EC50: cell impedance assay, CHO cells expressing human MT1, mean±SD, triplicate; for Emax: read-out: MT1 E max
Experimental: as §1, §2

[10] = buffer pH 1.0, simulated gastric fluid, pH 1.0 buffer, read-out: Solubility pH 1.0
[11] = buffer pH 7.4, aqueous buffer, pH 7.4 buffer, read-out: Solubility pH 7.4
[12] = Sprague-Dawley, IV bolus 5 mg kg^−1
[13] = Sprague-Dawley, PO gavage 40 mg kg^−1
[14] = Sprague-Dawley CD, IV bolus 5 mg kg^−1
[15] = Sprague-Dawley CD, PO gavage 40 mg kg^−1

T1 sequence (P48039 whole entry): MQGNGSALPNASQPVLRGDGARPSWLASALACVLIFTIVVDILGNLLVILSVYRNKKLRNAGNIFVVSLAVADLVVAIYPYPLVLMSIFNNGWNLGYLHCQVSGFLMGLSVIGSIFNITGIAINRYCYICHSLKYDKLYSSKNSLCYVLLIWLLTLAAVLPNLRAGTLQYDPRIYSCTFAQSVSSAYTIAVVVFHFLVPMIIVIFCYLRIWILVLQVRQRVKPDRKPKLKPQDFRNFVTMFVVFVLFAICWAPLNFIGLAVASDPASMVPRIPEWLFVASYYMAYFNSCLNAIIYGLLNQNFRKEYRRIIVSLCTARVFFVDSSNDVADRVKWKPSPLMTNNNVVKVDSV

SMILES	solubility [1, 10] [µg/mL]	solubility [1, 11] [µg/mL]	Ki [2] [nM]	Ki [3] [nM]	CLi Human LM (intrinsic clearance) [4] [μL min^−1 mg prot^−1]	half-life at 5 μM [4] [min]	CLi Rat LM (intrinsic clearance) [5] [μL min^−1 mg prot^−1]	half-life at 5 μM [5] [min]	melting point [°C]	logD ([6]; n-octanol/water (MOPS buffer))	EC50 [7] [nM]	functional profile (intrinsic activity) [7]	Emax [7] [%]	F (oral bioavailability) [8]	EC50 [9] [nM]	Emax [9] [%]	further results
CC(=O)NCCN(c1ccc(F)cc1)c1cccc(C(F)F)c1 [Compound 10, N ‐(2‐{[3‐(Difluoromethyl)phenyl](4‐fluorophenyl)amino}ethyl)acetamide]	54.9 ± 1.1 (≈ 170 µM)	40.6 ± 0.1 (≈ 126 µM)	> 100	35 ± 0.35	12.8±1.3	55.4 ± 6.8	58.0±8.2	12.2 ± 1.5	76 to 77	3.45 ± 0.02	–	–	–	–	–	–	–
COc1cccc(N(CCNC(C)=O)c2ccsc2)c1 [Compound 11, N ‐{2‐[(3‐Methoxyphenyl)(thiophen‐3‐yl)amino]ethyl}acetamide]	162 ± 4.4 (≈ 556 µM)	92.5 ± 3.5 (≈ 319 µM)	0.7 ± 0.1	0.07 ± 0.02	17.5±2.4	40.1 ± 5.3	175.4±22.3	4 ± 0.5	76 to 77	2.74 ± 0.01	–	–	–	–	–	–	–
COc1ccc(Br)c(N(C)CCNC(C)=O)c1 [Compound 19, N ‐{2‐[(2‐Bromo‐5‐methoxyphenyl)methylamino]ethyl}acetamide]	> 1000	823 ± 34.7 (≈ 2730 µM)	18 ± 0.7	2.4 ± 0.1	8.9±1.4	78.5 ± 12.2	39.6±3.1	17.6 ± 1.5	–	–	0.83 ± 0.05	full agonist	93 ± 2	moderate	4.4 ± 0.2	94 ± 4	Vd [8, 14]: 0.7 ± 0.1 L/kg; bioavailability ([8]; Sprague-Dawley CD): 3.6%; AUC [8, 14]: 1100 ng·h/mL; Cmax [8, 14]: 2970 ± 384 ng/mL; clearance [8, 14]: 76.4 ± 8.8 mL/min/kg; half-life [8, 14]: 13.5 ± 0.3 min; AUC [8, 15]: 319 ng·h/mL; Cmax [8, 15]: 456 ± 178 ng/mL; half-life [8, 15]: 26.2 ± 0.9 min; logD ([6]; n-octanol/water (50 mM MOPS buffer)): 1.85 ± 0.01

Now from value to molecule, other results behind:

solubility [1, 10] [µg/mL]	solubility [1, 11] [µg/mL]	Ki [2] [nM]	Ki [3] [nM]	CLi Human LM (intrinsic clearance) [4] [μL min^−1 mg prot^−1]	half-life at 5 μM [4] [min]	CLi Rat LM (intrinsic clearance) [5] [μL min^−1 mg prot^−1]	half-life at 5 μM [5] [min]	melting point [°C]	logD ([6]; n-octanol/water (MOPS buffer))	SMILES	EC50 [7] [nM]	functional profile (intrinsic activity) [7]	Emax [7] [%]	F (oral bioavailability) [8]	EC50 [9] [nM]	Emax [9] [%]	further results
17.7 ± 0.9 (≈ 54.1 µM)	14.3 ± 0.1 (≈ 43.7 µM)	57 ± 0.1	1.7 ± 0.08	95.7±14.7	7.4 ± 1.2	218.4±21.2	3.2 ± 0.3	63 to 65	3.91 ± 0.02	CCCNC(=O)NCCN(c1ccccc1)c1cccc(OC)c1 [Compound 6 c, 1‐{2‐[(3‐Methoxyphenyl)phenylamino]ethyl}‐3‐propylurea]	–	–	–	–	–	–	–
> 1000	> 1000	> 100	3.5 ± 0.05	10.8±1.2	64.9 ± 6.9	241.4±28.5	2.9 ± 0.3	–	2.04 ± 0.01	COc1cccc(N(CCNC(C)=O)c2cccc(CO)c2)c1 [Compound 14, N ‐{2‐[(3‐Hydroxymethylphenyl)(3‐methoxyphenyl)amino]ethyl} acetamide]	6.8 ± 0.3	MT2‐selective partial agonist	71 ± 2	very low	53 ± 0.5	32 ± 3	increase of human microsomal stability compared to UCM765 ([4]; human liver microsomes, versus UCM765): approximately 1.5 fold; increase of rat microsomal stability compared to UCM765 ([5]; rat liver microsomes, versus UCM765): approximately 1.5 fold; Vd [8, 12]: 0.9 ± 0.2 L/kg; bioavailability ([8]; Sprague-Dawley): 0.5%; AUC [8, 12]: 1110 ng·h/mL; Cmax [8, 12]: 2760 ± 479 ng/mL; clearance [8, 12]: 76.2 ± 10.3 mL/min/kg; half-life [8, 12]: 11.5 ± 1 min; AUC [8, 13]: 43.8 ng·h/mL; Cmax [8, 13]: 75.6 ± 39.7 ng/mL; half-life [8, 13]: 19.8 ± 1.9 min

From paper PMC8518537, “N‐(Anilinoethyl)amide Melatonergic Ligands with Improved Water Solubility and Metabolic Stability” (Chemmedchem, 2021)
